System: female BALB/c mice
Experiment: Toxicity, multiple administrations for 14 days in mice
Type: in vivo
Settings: female BALB/c mice
Description: • Part I: Single administration. A total of 6 mice were used. They were randomly divided into 2 groups: the vehicle control and GEN1-284s (1000 mg/kg), dosed once by oral gavage and observed for 6 days, and changes in body weight and activities were recorded. • Part II: Multiple administrations. This experiment used a total of 6 mice. They were divided into two groups of 3: a GEN1-284s-1000 mg/kg group and a GEN1-284s-300 mg/kg group, and were intragastrically given GEN1-284s for 14 consecutive days at 200 μL each. The state and survival of the mice were observed every day, and their body weights were recorded. Two mice died 2 h after GEN1-284s-1000 mg/kg administration. The dose was changed to 600 mg/kg, and the experiment was continued.
This experiment used a total of 6 mice. They were divided into two groups of 3: a GEN1-284s-1000 mg/kg group and a GEN1-284s-300 mg/kg group, and were intragastrically given GEN1-284s for 14 consecutive days at 200 μL each. The state and survival of the mice were observed every day, and their body weights were recorded. Two mice died 2 h after GEN1-284s-1000 mg/kg administration. The dose was changed to 600 mg/kg, and the experiment was continued.
Each mouse was intragastrically administered GEN1-284s for 14 consecutive days in a volume of 200 μL/20 g. The state and survival of the mice were observed every day, and their body weights were recorded. Two mice died 2 h after GEN1-284s-1000 mg/kg administration. The dose was changed to 600 mg/kg, and the experiment was continued.
Changes in body weight and survival of the mice were observed during 6 days after the single administration, and changes in body weight and the survival of the mice were observed during 14 consecutive days of high-dose GEN1-284s administration.

[1] = 300 mg/kg intragastric for 14 consecutive days

With O=C(Cc1ccc2ncccc2c1)N1CCC(n2c(=O)n(COP(=O)([O-])[O-])c3cccc(C(F)(F)F)c32)CC1.[Na+].[Na+] [GEN1-284 salt, (2-Oxo-3-(1-(2-(quinolin-6-yl)acetyl)piperidin-4-yl)-4-(trifluoromethyl)-2,3-dihydro-1H-benzo[d]imidazol-1-yl)methyl disodium phosphate] the “Change in body weight” value [1] was “no significant change in body weight”, the Survival [1] was “did not affect the survival of the mice” and the “Number of mice that died” value (600 mg/kg group, Day 4) was 1 mouse. The “Number of mice that died 2 h after administration” value (1000 mg/kg intragastric, day 1, group of 3) was 2 mice and the “Time within which all mice died” value (continuous administration of 600 mg/kg) was at most 5 days.

Source: patent publication US20240391940A1, “FUSED RING-CONTAINING COMPOUND, APPLICATION THEREOF, AND COMPOSITION CONTAINING SAME” (GenEros Biopharma Ltd., priority 2020, published 2024)
